# In the METLIN SMRT retention time set (Domingo-Almenara et al. 2019):
# Test: gradient 5% acetonitrile 3 min, to 50% in 2 min, to 85% in 15 min, held 3 min, 100 µL/min
# Conditions: column: Zorbax Extend-C18 2.1 x 50 mm; eluents: water / acetonitrile, 0.1% formic acid
# Method in brief: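 Retention time was recorded from adduct peaks, which were picked computationally and each inspected manually. Pure standards ran in mixtures of ~100 molecules on HPLC coupled to a quadrupole time-of-flight mass spectrometer, in positive and negative ionization mode, through a Zorbax Extend-C18 column (2.1 × 50 mm, 1.8 μm) at 100 μL/min. Eluents were water and acetonitrile, each with 0.1% formic acid.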
row,RP-LC retention time,SMILES
1,941 s,O=c1c(S(=O)(=O)N2CCCCCC2)cccn1Cc1ccccc1F
2,642 s,O=C(CNC(=O)c1cc(F)cc(F)c1)Nc1nc2ccccc2[nH]1
3,662 s,CC(=O)N1CCN(C(=O)[C@@]23CCCC[C@H]2N(CCC(C)C)C(=O)CC3)CC1
4,899 s,COc1cc(OC)c(NC(=O)Cn2nc3cc(C)nc(-c4ccc(F)cc4)n3c2=O)cc1Cl
5,851 s,CC(=O)Nc1ccc(-c2nc3ccc(C)cc3s2)cc1
6,770 s,COc1ccc(Cl)cc1NC(=O)c1coc(NC(=O)C2CC2)n1
7,549 s,Cc1nc(-c2ccncc2)nc2c1CCC(=O)N2CCCN(C)C
8,574 s,CN(C)[C@@H]1CN(Cc2ccc(Br)o2)CC[C@@H]1CNC(=O)C1CC1
9,714 s,CN(C)c1ncnc2c1ncn2-c1ccccc1
10,606 s,CN1C(=O)c2cccnc2Sc2cc(NC(=O)c3ccncc3)ccc21
11,740 s,CCN(CC)CCCNC(=O)C(C)n1c(=O)c(C(F)(F)F)nc2cc(C)c(C)cc21 (configuration not stated)
12,592 s,CCc1cc(C(=O)NCCN2CCOCC2)nc2cc(-c3ccccn3)nn12
13,636 s,COCC1(F)CCN(Cc2c(-c3cc(C)ccc3C)nc3cc(C)ccn23)CC1
14,660 s,Fc1ccc(-c2noc3ncnc(N4CCN(c5ccccn5)CC4)c23)cc1
15,720 s,COCCc1nncn1C1CCN(S(=O)(=O)c2ccccc2C(F)(F)F)CC1
16,616 s,O=C(NCCn1nnc2cc(C(=O)N3CCCC3)ccc21)Nc1ccccc1
17,1010 s,CC1CCN(S(=O)(=O)c2ccc(-c3nnc(C(=O)NCc4ccc5c(c4)OCO5)o3)cc2)CC1
18,680 s,Cc1ccn2c(Nc3ccc4c(c3)OCCO4)c(-c3ccc(N4CCOCC4)cc3)nc2c1
19,1050 s,Cc1ccc(-c2nc3nc(C)cc(N4CCCCC4C)n3n2)cc1 (configuration not stated)
20,952 s,Cc1ccc(Cn2nc3ccc(S(=O)(=O)N4CCCC4)cn3c2=O)cc1C
21,596 s,CN(C)CCNC(=O)CN1C(=O)C2CCCCN2c2ccc(C(=O)N3CCCC3)cc21 (configuration not stated)

row,RP-LC retention time,SMILES
1,754 s,COc1ccc(NC(=O)C2CCN(C(=O)C3Sc4ccccc4NC3=O)CC2)c(OC)c1 (configuration not stated)
2,1140 s,O=C(O)c1cc2ccccc2cc1Nc1ccccc1
3,818 s,CCS(=O)(=O)N1CC(=O)N(c2ccc(F)cc2C)C(C)(C(=O)NCc2ccccc2)C1 (configuration not stated)
4,873 s,O=C(NCc1ccccc1Cl)c1ccc(NC(=O)C2CCC2)cc1N1CCOCC1
5,674 s,Cc1nncn1C1CCN(S(=O)(=O)c2ccc(C(C)C)cc2)CC1
6,736 s,Cc1ccc(CNC(=O)C(C)n2nc(C)c3c(C)n(-c4ccccc4)nc3c2=O)o1 (configuration not stated)
7,772 s,COc1ccccc1/C=C/C(=O)/C=C/c1ccccc1O
8,581 s,CCN1CCN(C(=O)CN2C(=O)COc3ccc(C(=O)N(CC)CC)cc32)CC1
9,678 s,O=C(CN1CCC(c2nc(-c3ccc(F)cc3)no2)CC1)NC1CCCC1
10,1100 s,Cc1ccc(CNC(=O)Cn2nc(N3CCCCCC3)c3ccccc3c2=O)cc1
11,1080 s,Cc1cccc(N2CCN(C(=O)C3c4ccccc4CCN3C(=O)C3CC3)CC2)c1C (configuration not stated)
12,728 s,Cc1cccc(OCc2ccc(-c3nc(C#N)c(NCCCN(C)C)o3)o2)c1
13,619 s,Cc1nc(-c2ccc3c(c2)n(CC(=O)NCc2ccc4c(c2)OCO4)c(=O)n3C(C)C)no1
14,792 s,O=C(C1CCCO1)N1CCC(c2cnn(-c3cccc(F)c3)c2)CC1 (configuration not stated)
15,671 s,COC(=O)Cn1c(-c2ccccc2)cnc1SCC(=O)Nc1nccs1
16,629 s,Cc1ccc(-c2nc3ccccn3c2NC(=O)NCc2ccco2)cc1
17,794 s,COC(=O)CNC(=O)C1COc2ccc(NC(=O)c3ccc(Cl)cc3)cc2C1 (configuration not stated)
18,630 s,O=C(NC1CC1)C1CC(=O)N(c2ccc3c(c2)CCN3C(=O)C2CC2)C1 (configuration not stated)
19,948 s,Cc1ccc2nc(NC(=O)Cn3c(=O)n(C(C)C)c4ccc(-c5noc(C)n5)cc43)sc2c1
20,887 s,Cc1ccc(-c2nc3sc(N4CCCCC4)nn3c2NC(=O)c2ccnn2C)cc1
21,894 s,Cc1cccc(-n2ccc(=O)c(-c3nc(-c4ccc5c(c4)OCO5)no3)n2)c1

row,RP-LC retention time,SMILES
1,691 s,CCn1c(=O)c(-c2noc(C(=O)N3CCN(c4ccccn4)CC3)n2)nn(-c2ccccc2)c1=O
2,562 s,Cc1nn(C)cc1C(=O)NC1CCN(c2ccc(=O)n(C)n2)C1 (configuration not stated)
3,657 s,Cc1nn(CC(=O)NCCN2CCCCCC2)c(=O)c2nc(-c3ccccc3)sc12
4,784 s,O=C(NC1CCCC1)C1CCCN(S(=O)(=O)c2c[nH]c(C(=O)N3CCCCCC3)c2)C1 (configuration not stated)
5,1130 s,CCCn1nnc(NCc2ccc(-c3ccc(C)c(Cl)c3)o2)n1
6,648 s,O=C(Cc1ccsc1)Nc1ccc(-c2nnc3n2CCCC3)cc1
7,921 s,COc1ccc(Cl)cc1S(=O)(=O)N1CCC(C(=O)Nc2ccccc2F)CC1
8,778 s,Cc1ccc(Nc2c(-c3cccc(Br)c3)nc3ccccn23)cc1
9,722 s,Cn1ncc(NC(=O)Cc2cccc(F)c2)c(N2CCOCC2)c1=O
10,938 s,CCS(=O)(=O)N1CC(=O)N(c2ccc(F)cc2)C(C)(C(=O)NC2CCCCCCC2)C1 (configuration not stated)
11,579 s,O=C(NCc1ccncc1)C1CCCN(c2ncnc3c2oc2ccccc23)C1 (configuration not stated)
12,573 s,CC(C)N1CCc2c(sc(NC(=O)c3ccc([N+](=O)[O-])s3)c2C(N)=O)C1
13,752 s,CN1C(=O)C2(CCN(C(=O)Nc3ccc4c(c3)OCO4)C2)c2ccccc21 (configuration not stated)
14,610 s,CCOc1ccc(CN2C[C@@H]3C(=O)N(CCCN4CCCC4=O)C(=O)[C@@H]3C2)cc1
15,861 s,Cc1ccc(Cn2cc(C(=O)O)c(S(=O)(=O)N3CCSCC3)n2)cc1
16,646 s,Cc1ccc2nc(-c3ccc(O)cc3)c(Nc3ccc4c(c3)OCCO4)n2c1
17,754 s,COC(=O)N1CCc2ccc(F)cc2C1C(=O)Nc1cccc2nsnc12 (configuration not stated)
18,988 s,COCCNC(=O)Cn1cccc1-c1nc(-c2ccc(Cl)cc2)cs1
19,1000 s,O=C(Nc1ccc(Br)cc1F)C1CCN(S(=O)(=O)Cc2ccccc2)CC1
20,861 s,Cc1ccc(C2NC(=O)N(CC(=O)Nc3ccc(Br)cc3F)C3=C2C(=O)OC3)cc1 (configuration not stated)
21,729 s,COc1ccc(-c2nc3cc(C)ccn3c2NC(=O)COc2ccc(Cl)cc2)cc1

row,RP-LC retention time,SMILES
1,824 s,COc1ccc(S(=O)(=O)NCc2ccc3c(c2)CCN3C(=O)c2ccccc2)cc1OC
2,890 s,Cc1nn(C(C)C)c(C)c1S(=O)(=O)N1CCN(C(=O)C2(c3ccccc3)CC2)CC1
3,694 s,Cc1ccc2nc(-c3cccc(Br)c3)c(C)c(C(=O)O)c2c1
4,603 s,COc1ccccc1NC(=O)c1ccc(CSc2ncccn2)cc1
5,1240 s,COc1nc2ccccc2nc1N1CCCC(C(=O)Nc2ccc(Cl)cc2)C1 (configuration not stated)
6,626 s,COc1ccc(NC(=O)COc2ccc(-c3nnc4n3CCCC4)cc2)cc1OC
7,834 s,O=c1ccc(N2CCC(NS(=O)(=O)c3ccc(F)c(F)c3)CC2)nn1CC1CC1
8,892 s,CN(C)S(=O)(=O)c1ccc(C(=O)N2CCC(Oc3nc4ccccc4s3)CC2)cc1
9,1090 s,COc1ccc(-c2nc(CN3C(=O)C(O)(c4ccc(C)cc4)c4ccccc43)c(C)o2)cc1 (configuration not stated)
10,799 s,Cc1ccc(N2C(=O)CCS2(=O)=O)cc1S(=O)(=O)NCCc1c[nH]c2ccccc12
11,977 s,O=C(NCCc1cccs1)c1nnc(-c2ccc(S(=O)(=O)N3CCCCC3)cc2)o1
12,913 s,COc1ccccc1-c1nnc(-c2ccc(Cl)c(S(=O)(=O)N(C)C)c2)o1
13,972 s,CC(C)(Oc1ccc(Cl)cc1)C(=O)NC1CCCCC1N1C(=O)CSC1=O (configuration not stated)
14,775 s,O=C(Nc1ccccc1)[C@@H]1OCC(=O)N(C2CC2)[C@H]1c1ccccc1
15,970 s,COc1ccc(-n2cc(C(=O)OCc3ccco3)c3ccccc3c2=O)cc1
16,588 s,CN(C)C[C@@H]1CN(C)C[C@H]1NC(=O)NCc1ccc(OC(F)(F)F)cc1
17,874 s,Cc1ccc(-c2noc(-c3ccc(N4CCN(Cc5ccc6c(c5)OCO6)CC4)nc3)n2)cc1
18,798 s,COc1ccc(NC(=O)Nc2nccn(-c3cccc(F)c3)c2=O)cc1OC
19,991 s,Cn1cc(C(=O)NCCC2=CCCCC2)c2nn(-c3ccccc3)c(=O)c-2c1
20,712 s,CC(C)c1ccc(NC(=O)C(=O)NC2CC(C)(C)NC(C)(C)C2)cc1
21,943 s,Cc1cccc(NC(=O)C2CCN(S(C)(=O)=O)c3cc(C)ccc3O2)c1 (configuration not stated)

row,SMILES,RP-LC retention time
1,COc1ccc2c(c1)C1(CCN(C(=O)c3ccccc3F)C1)C(=O)N2C (configuration not stated),752 s
2,COc1ccc2c(c1)C1(CCN(C(=O)C(C)(C)C)C1)C(=O)N2 (configuration not stated),703 s
3,C=C1[C@@H](C)[C@H]2[C@H](Cc3ccccc3)NC(=O)C23[C@H](OC(C)=O)/C=C/[C@](C)(O)C(=O)[C@@H](C)C/C=C/[C@H]3[C@@H]1O (some centres not stated),801 s
